Data as given in patent publication US20080200441A1, “ESTROGEN RECEPTOR MODULATORS ASSOCIATED PHARMACEUTICAL COMPOSITIONS AND METHODS OF USE” (University of Southern California, priority 2007, published 2008).

How the values were obtained:
Bcl-2 [1] = settings: previously observed; cited from earlier work
Bcl-2 [2] = assay: Bcl-2 expression, Western immunoblotting; settings: primary hippocampal neurons
[3] = tested on: rat primary hippocampal neurons; assay: Intracellular calcium imaging in hippocampal neurons; type: cell-based
Experimental: The [Ca^2+]i in hippocampal neurons was measured by ratiometric Ca^2+ imaging with the Ca^2+-sensitive fluorescent dye fura-2. Prior to imaging, hippocampal neurons were loaded with 2 μM fura-2 acetoxymethyl ester (fura-2 AM, Molecular Probes, Inc., Eugene, Oreg.) for 30-45 min at 37° C. in HEPES-Buffered Solution (HBS), containing (in mM): 100 NaCl, 2.0 KCl, 1.0 CaCl2, 1.0 MgCl2, 1.0 NaH2PO4, 4.2 NaHCO3, 12.5 HEPES and 10.0 glucose. Excess fura-2 AM dye was removed by washing with HBS and then the neurons were incubated in HBS for 30 min at 37° C. to equilibrate. The coverslip with fura-2 AM-loaded neurons was removed and attached to the coverslip clamp chamber MS-502S (ALA Scientific Instruments, Westbury, N.Y.) for the Ca^2+ imaging analysis. Neurons were placed on the stage of an inverted microscope (MT-2, Olympus) equipped with epifluorescence optics (20× Nikon), The perfusion solution is HBS and the perfusion system connected to the perfusion chamber was balanced using two variable speed pumps. Imaging was performed at room temperature. Neurons were perfused at a flow rate of 2 ml/min. Fura-2 was excited by a xenon light source at 340 and 380 nm. The emitted fluorescence was filtered through a 520 nm filter, captured with an intensified CCD camera (COHU) and analyzed with InCyt Im2 software (Intracellular Imaging, Cincinnati, Ohio). The concentration of Ca^2+ was calculated by comparing the ratio of fluorescence at 340 and 380 nm against a standard curve of known [Ca^2+].

MCF-7 cells = assay: MCF-7 cell proliferation, MTT; type: cell-based, human; settings: 3 days, serially diluted concentrations, MTT at 570 nm
Bcl-XL = settings: previously observed; cited from earlier work
[4] = tested on: rat primary hippocampal neurons; settings: previous reports; cited from earlier work
ERK2 = assay: ERK phosphorylation, Western immunoblotting; settings: primary hippocampal neurons
spinophilin = settings: primary neurons, earlier findings; cited from earlier work

C[C@]12CCC3c4ccc(O)cc4CC(CCCCCCCCC[S+]([O-])CCCC(F)(F)C(F)(F)F)C3C1CC[C@@H]2O (stereo partly shown) [ICI 182,780]
Bcl-2 expression (Bcl-2 [1]): Upregulation | expression of antiapoptotic protein Bcl-2 (Bcl-2 [2]): potentiate the expression of antiapoptotic protein Bcl-2 | intracellular calcium rise ([3]; compound alone): directly induce intracellular calcium rise | physiological glutamate-induced rise in calcium ion concentration ([3]; physiological glutamate): potentiates the physiological glutamate-induced rise in calcium ion concentration | excitotoxic glutamate-induced rise in intracellular calcium ([3]; pretreated neurons, excitotoxic glutamate): attenuation of the glutamate-induced rise in intracellular calcium | MCF-7 cell proliferation (MCF-7 cells): promoted MCF-7 cell proliferation in a concentration dependent manner | Bcl-XL expression (Bcl-XL): Upregulation | concentration of maximal neuroprotection [4]: 10 nM | phosphorylation of ERK (ERK2): activate the phosphorylation of ERK | spinophilin expression (spinophilin): comparably effective to 17β-estradiol in upregulating spinophilin expression
